This is an account of results in patent publication US12589103B2, “Antimicrobial and antiviral effects of C2-C7 alkyl boronic acids” (CORNELL UNIVERSITY, priority 2019, dated 2026).

“Also recorded” adds a separate entry of the source.

The subject of data set [1] is diarrheagenic E. coli and APEC. In words: Growth of diarrheagenic and APEC E. coli in LB media. Format: cell-based. Conditions: 30 mM. The method, then:
(§1) The control sample contained 40 mM NaCl.
Diarrheagenic E. coli pathogroups differ by their preferential host colonization sites, virulence mechanisms, and clinical symptoms.

Data set [2] relates to AIEC and cancer associated E. coli. In words: Soft agar motility assay, E. coli. Format: cell-based. The following applies: 10 h, AIEC NC101, 541-1, cancer associated E. coli. The method, then:
(§2) The ability of ABA C1-3 and BA to impact the motility of E. coli and Salmonella was evaluated using sloppy agar treated with and without BA and C1-C3 alkyl boronic acids. Motility is strongly linked to the virulence phenotype of these bacterial strains. E. coli was grown overnight at 37° C. in LB broth. Soft agar plates (1% tryptone, 0.5% NaCl, 0.25% agar) were prepared the day before the assay was carried out. Sterile NaCl (control), boric or boronic acid stock solution was added into the agar right before pouring the plates. The overnight cultures of E. coli were transferred (3 μl) on to the center of each plate, followed by incubation of the plates at 37° C. for 10 h. E. coli motility was quantified by measuring the diameter of the circular swarming area formed by the growing motile bacteria.

Data set [3] has as its system AIEC E. coli from dogs (MDR and non-MDR strains). The data set can be described thus: Growth of MDR and non-MDR E. coli associated with Granulomatous colitis in dogs. In kind it is cell-based. The following applies: 40 mM, LB broth, 48 hrs. The procedure: (§3) The ability of C1-C3 alkyl boronic acids and BA to impact the growth of MDR E. coli isolated from people and dogs was evaluated using a temperature controlled 96-well multiplate incubator at 37° C. over 48 hrs. Growth in media (LB broth) with and without ABA C2-6 (40 mM) was monitored by readings at OD600 with the AUC of the growth curve calculated.
Non-MDR strains KD1, KD2, and KD3 were also evaluated.

Data set [4] deals with AIEC in murine macrophage J774A.1 cells. The data set can be described thus: Uptake and survival of AIEC in J774A.1 macrophages. Conditions: for survival of AIEC in J774A.1 macrophages: 30 mM during infection, 24 h post infection; for uptake of AIEC by J774A.1 macrophages: 30 mM, 1 h. In kind it is cell-based, E. coli.
Another data set deals with nF-κB. In words: E. coli induced nF-κB activation in HEK-Blue KD-TLR5 cells (SEAP reporter). In kind it is cell-based. Conditions: m.o.i 20, SEAP at 24 h. The procedure:
HEK-Blue KD-TLR5 cells were used to detect the promotor activation of nF-κB by E. coli infection with or without boric or boronic acid treatment. nF-κB is the prototypical transcription factor for pro-inflammatory cytokines in epithelium. Briefly, cells were seeded in 96-well plates at a density of 5×10^4 cells per well. E. coli was diluted into fresh cell medium containing either NaCl (Control), boric or boronic acid at an m.o.i of 200 as 10× inocula, followed by addition of this inoculum (10 μl) into each well containing 100 μl of medium for a final m.o.i of 20. At 3 h post infection, the cell medium was carefully removed from each well, and replaced with 100 μl of fresh medium containing gentamycin (200 μg mL^−1). At 24 h post infection, the spent medium was collected, and centrifuged at 12,000 r.p.m. for 5 min to remove any particulate matter. QUANTI-Blue Kit (InvivoGen, San Diego, CA, USA) was used to detect the reporter protein SEAP (secreted alkaline phosphatase) following the manufacturer's instructions.

Data set [5] has as its system Salmonella. The data set can be described thus: Soft agar motility assay, Salmonella. In kind it is cell-based. Conditions: % motility of the control. The method, then:
as §2

A further data set has as its system AIEC 541-1 and LF82. In words: Adhesion and invasion of Caco-2 cells by AIEC. Format: cell-based, E. coli. Conditions: 30 mM, m.o.i 10, 3 h.
For data set [6], the system named is typhoid toxin B subunit (CdtB). In kind it is cell-based, Salmonella typhi.
In data set [7] the test system is AIEC E. coli isolated from people (MDR and non-MDR strains). The data set can be described thus: Growth of MDR and non-MDR E. coli associated with Crohn's disease. Format: cell-based. The following applies: 40 mM, LB broth, 48 hrs. The method, then: as §3
The subject of data set [8] is Feline Infectious Peritonitis Virus (FIPV) Black (TN-406). In words: FIPV replication and syncytium formation, immunofluorescence. In kind it is cell-based, Feline Coronavirus type I. The following applies: 10, 20, 30, 40 mM; Feline Lung cells, 18 h post-infection.
Data set [9] relates to probiotic Lactobacillus spp. The data set can be described thus: Growth of probiotic Lactobacillus strains. Conditions: three Lactobacillus strains.
Data set [10] relates to Salmonella. In words: Growth of five Salmonella strains. Format: cell-based. The procedure: as §1
In data set [11] the test system is AIEC E. coli (541-1, LF82) virulence genes. In words: Virulence gene expression of AIEC (qRT-PCR). Format: cell-based. The following applies: 30 mM. The procedure: Total RNA was extracted using the Qiagen RNAProtect-RNeasy Kit per manufacturer's protocol. Total RNA was treated with TURBO DNA-Free Kit (Ambion), followed by a two-step qRT-PCR analysis, using Qiagen's QuantiTect Reverse Transcription Kit and QuantiNova SYBR Green PCR Kit. Each qPCR reaction contained 1 μl of cDNA, 0.7 μl of each forward and reverse primers (10 μM), 5 μL of 2× SYBR Green Master Mix, 1 μl of QN ROX Reference Dye and […] of nuclease-free water to make the total volume of 10 μl. The reaction was run with ABI7000 (Applied Biosystems). […] The relative change of a targeted gene expression was calculated by using the equation RQ=2^−ΔΔCT.
A general note: Real-time PCR tracks product formation cycle by cycle.

In a further data set the test system is AIEC E. coli. Conditions: complex media lacking ethanolamine or fucose.
Data set [12] can be described thus: DSS induced colitis in mice. The following applies: 40 mM in drinking water after DSS (3%). In kind it is in vivo, C57BL mice. The procedure:
On the basis of favorable in vivo toxicity tests, the ability of BA and EBA to reduce the severity of inflammation in murine models of microbially driven IBD was tested. The effect of BA and EBA (40 mM) on intestinal inflammation was evaluated in mice with dextran sodium sulfate (“DSS”) induced colitis. The DSS model has a complex etiopathogenesis that involves host-immune and inflammatory responses and the enteric microbiome BA To test their protecting ability to the gastrointestinal tract, boric and ethylboronic acid were given to C57BL mice at 40 mM concentration respectively in drinking water after DSS (3%) treatment. Body weight and fecal samples were taken before and after 6-day treatment. At the 6th day, all mice were euthanized for gross necropsy and histopathology. Intestinal sections were collected and embedded for pathological and FISH analysis. Fecal samples were used for 16s and lipocalin analysis.

A short description of data set [13]: 8-week toxicity study in mice, drinking water. Format: in vivo, C57/B18 mice. The following applies: mouse, in vivo. The method, then: The toxicity of boric and ethylboronic acids were examined with C57/B18 mice. At concentrations of 0, 10, 20, and 40 mM, the two chemicals were given to each group (6 mice) in drinking water. The body weight of each mouse was recorded weekly for 8 weeks, and fecal samples were also collected weekly for 16s sequencing. All animals were sacrificed at the end of 8th week. The length of whole intestine and ileum of each mouse was measured, and sections of the intestine (i. e. small intestine, ileum, cecum, and large intestine) were taken for histopathological and FISH analysis. Fecal samples were used for 16s and lipocalin analysis.
For lipocalin analysis, mouse fecal pellets were collected and frozen at −80 C during toxicity study. To determine lipocalin activity fecal pellets were diluted in microfuge tubes 1/30 with 0.1% Tween20/PBS and vortexed for 20 min at maximum speed. Undissolved particles were removed by centrifuging at 12,000 rpm for 10 min at 4 C. Supernatant was removed and placed into a clean microfuge tube. Lipocalin activity was determined using Mouse Lipocalin-2/NGAL DuoSet ELISA Kit (R&D Systems, DY1857) per manufacturer's instructions.

The subject of another data set is FIPV. Conditions: known drugs; cited from earlier work.
Data set [14] concerns the target T1, 3CL protease of the FIP virus (Feline coronavirus, UniProt Q98VG9).
T1 construct: 3CL protease of the FIP virus
Conditions: cited from earlier work.

T1 sequence (Q98VG9 2904-3205): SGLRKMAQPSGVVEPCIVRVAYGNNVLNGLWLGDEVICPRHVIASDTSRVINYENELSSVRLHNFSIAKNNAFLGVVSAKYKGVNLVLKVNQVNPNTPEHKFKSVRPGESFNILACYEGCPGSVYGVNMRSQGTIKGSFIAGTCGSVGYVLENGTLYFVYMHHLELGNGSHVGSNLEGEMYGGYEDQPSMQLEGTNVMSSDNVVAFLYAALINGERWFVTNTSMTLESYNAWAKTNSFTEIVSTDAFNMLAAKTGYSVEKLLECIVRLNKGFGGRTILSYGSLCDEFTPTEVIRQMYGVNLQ
Description for AIEC 541-1 and LF82: E. coli was cultured overnight in LB at 37° C. with shaking. Bacterial pellets were re-suspended in PBS before dilution in cell culture media±30 mM boronic acid or alkyl boronic acid to an m.o.i (multiplicity of infection) of 10. Caco-2 cells were infected with the diluted E. coli for 3 h at 37° C. before washing with PBS, then lysed with 1% Triton X-100. Serial dilutions of the lysates were made in PBS and plated on LB agar. The total number of colonies recovered was used to calculate the number of adherent bacteria. For invasion assays, cells were treated with gentamicin (100 μg mL−1) for one hour after initial infection and 3× wash with PBS to kill extracellular bacteria. Cells were then washed 3× after gentamicin treatment, lysed and plated as described above.

Consider `CCCB(O)O` [PBA], for which the “inhibition of growth of diarrheagenic and APEC E. coli” value in [1] was “have activity versus the diarrheagenic E. coli and APEC that varies by pathogroup; also recorded: more effective in inhibiting bacterial growth than BA overall”. Moreover, the “motility of E. coli” value in data set [2] was “highly effective at blocking motility of AIEC and cancer associated E. coli”. The “growth inhibition of canine Granulomatous colitis associated AIEC, MDR and non-MDR” value in data set [3] is “more effective than BA over a wider range of AIEC, including MDR and non-MDR strains”. Moreover, in [4], the “survival of AIEC in J774A.1 macrophages” value is “inhibited the survival” and the “uptake of AIEC by J774A.1 macrophages” value is recorded as “inhibited the uptake”. Besides, the “induction of nF-κB by E. coli” value in the data set on nF-κB was “reduced the induction of nF-κB by E. coli”. The “motility of Salmonella” value with Salmonella [5] is given as “highly effective at blocking motility of Salmonella”. In the data set with AIEC 541-1 and LF82, the “adhesion and invasion of Caco-2 by AIEC” value was “suppress adhesion and invasion of Caco-2 by AIEC 541-1 and LF82”. Further, in [6], the “typhoid toxin (CdtB) production” value is listed as “inhibition of toxin production (CdtB)”. For the same compound, the “cytotoxicity in antiviral assay” value in the data set with Feline Lung cells was “Cytotoxicity was not observed at antiviral doses”. Moreover, in data set [7], the “growth inhibition of Crohn's disease associated AIEC, MDR and non-MDR” value was “more effective than BA over a wider range of AIEC, including MDR and non-MDR strains”. In data set [8], the “replication and syncytium formation of FIPV” value is “inhibited replication and syncytium formation of FIPV in infected cells”. Moreover, the “growth of probiotic Lactobacillus spp” value in [9] is given as “do not suppress growth”. For the same compound, the “inhibition of growth of Salmonella serovars” value in the data set on Salmonella [10] is “inhibit the growth of multiple serovars of Salmonella more effectively than BA”. Also, the “degree of cytopathic effect” value in the data set with Caco-2 cells is reported as “EBA<BA<PBA”.
With `OB(O)O` [BA, Boric acid, reference compound], in [1], the “inhibition of growth of diarrheagenic and APEC E. coli” value was “have activity versus the diarrheagenic E. coli and APEC that varies by pathogroup”. In data set [11], the “pduC expression in 541-1” value was “Upregulation” and the “pduC expression in LF-82” value is “Upregulation”. In addition, the “motility of E. coli” value in data set [2] was “had less impact”. For the same compound, in [4], the “survival of AIEC in J774A.1 macrophages” value is listed as “inhibited the survival” and the “uptake of AIEC by J774A.1 macrophages” value is “inhibited the uptake”. The “induction of nF-κB by E. coli” value with nF-κB is “reduced the induction of nF-κB by E. coli”. The “suppression of AIEC growth in complex media” value in the data set with AIEC E. coli is reported as “effective in suppressing AIEC growth”. Further, in data set [12], the “colon length in DSS colitis versus control mice” value was “significantly different”, the “fecal lipocalin levels in DSS colitis versus control mice” value is recorded as “significantly different” and the “intestinal bleeding in DSS colitis” value is listed as “observed”. The “body weight in DSS colitis” value in [12] (6-day treatment) is reported as “reduced”. Besides, in data set [8], the “replication and syncytium formation of FIPV” value is “able to inhibit replication and syncytium formation”. The “fecal 16S profiles” value in data set [13] was “not significantly different from control mice”.
Take `CC(C)C[C@H](NC(=O)OCc1ccccc1)C(=O)N[C@@H](C[C@@H]1CCNC1=O)C(O)S(=O)(=O)[O-].[Na+]` (stereo partly shown) [GC376]: the “efficacy against FIPV” value in the data set with FIPV was “some efficacy against FIPV”. Besides, the “inhibition of FIP virus 3CL protease” value in [14] is given as “inhibited”.
